Values quoted from earlier work as cited in publication PMC3461233 (Angewandte Chemie (International ed. in English), 2012).

spontaneous translocation across synthetic membranes: does not translocate spontaneously
Substance: Arg9
